Reference: patent US12595449B2, “Integrated system for 3D tissue culture” (Valo Health, Inc., priority 2020, dated 2026)

System: human engineered cardiac tissues (human iPSC derived cardiomyocytes co-cultured with human cardiac fibroblasts)
Experiment: Drug testing with electrical stimulation of engineered cardiac tissues in the Biowire II 96-well plate (contractile dynamics from polymer wire displacement)
Format: cell-based
Conditions: thapsigargin 50×10^−6 m, n=2; for frequency of tissue beating: constant stimulation frequency 1.5 Hz, day 19, video after 15 min; for tissue contraction and relaxation time: electrical pacing 1.5 Hz, day 19 (after 12 days of electrical stimulation), video after 15 min
Description: To generate cardiac tissues, human iPSC derived cardiomyocytes co-cultured with human cardiac fibroblasts were seeded with hydrogel in the 96-well plate device. Tissue compaction in the first seven days was observed (FIG. 7A, FIG. 7B), with dramatic change in the first two days followed by stabilization after day 3. Electrical field stimulation of cardiac tissues was initiated at day 7 and continued for the additional 12 days. […] Thapsigargin (50×10^-6 m), an inhibitor of sarcoplasmic reticulum function in cardiomyocytes, was added in the presence of electrical pacing (1.5 Hz), resulting in a prolonged tissue contraction and relaxation time (FIG. 7H). […] Predominantly ventricular cardiomyocytes (CMs) were derived from the hiPSC line BJ1D, using monolayer differentiation protocols as previously described. At day 21 of differentiation, cardiomyocytes were disassociated into single cells with previously established methods. Briefly, 1 mg mL^-1 of collagenase type II (Worthington, LS004205) in Hank's Balanced Salt Solution was added to the monolayer cardiomyocyte cultures and incubated overnight at room temperature. The disassociated cells were mixed with cardiac fibroblasts (Lonza, NHCF-V) in a 10:1 cell number ratio. The mixed cells were pelleted and remixed in collagen hydrogel at 5.5×10^7 cells mL^-1. The cell-gel mixture was seeded at […] per microwell. A droplet of media was placed on the wall of the well to keep the moisture until gelation was complete. The plate was incubated at 37° C. and 5% CO2 for 10 min followed by media addition. After seeding (day 0), the tissues were cultured for seven days to allow remodeling around the POMaC wires. Bright field images of the tissues were taken daily to monitor tissue morphology. By day 7, the tissues synchronously contracted and deflected the POMaC wire with each contraction. SpectraMax […] 300 Imaging Cytometer was used to image tissues in the well plate to monitor the daily morphology changes of tissues. Nine pictures were taken in each well of the 96-well plate and automatically stitched together to show the entire view of the well. […] Average tissue width and width of the tissue (Tw), attachment site to the polymer sensor were measured using bright field images at the relaxed state. Passive displacement of polymer sensors was assessed in blue channel. […] The final readouts for the total and passive forces were interpolated according to the Tw and custom tip sizes. […] With built-in force sensor and electrodes, tissues were able to be assessed in situ in terms of their contractile dynamics and drug responses. […] The videos were analyzed using the custom MATLAB software. […]

Structure (SMILES): C/C=C(/C)C(=O)O[C@H]1C(C)=C2[C@H]([C@@H]1OC(=O)CCCCCCC)[C@@](C)(OC(C)=O)C[C@H](OC(=O)CCC)[C@@]1(O)[C@H]2OC(=O)[C@@]1(C)O [Thapsigargin]
- frequency of tissue beating: decreased by half
- frequency of tissue beating (listed as thapsigargin): reduced by half
- tissue contraction and relaxation time: prolonged
- tissue contraction and relaxation time (listed as thapsigargin): slowed
